Experimental findings from patent US9504671B2, “Pharmaceutical compositions of spiro-oxindole compound for topical administration and their use as therapeutic agents” (Xenon Pharmaceuticals Inc., priority 2010, dated 2016) are described below.

Structures are written as SMILES.

Assay [1] concerns STZ-induced neuropathic pain model. Kind of assay: STZ model of diabetic neuropathy, von Frey. The following applies: 50 mg on left foot, 30 minutes post-dosing. The format is in vivo, male Sprague-Dawley rats. An excerpt: This study evaluates the efficacy of a pharmaceutical composition of the invention in the STZ-induced neuropathic pain model in male Sprague-Dawley rats, following acute dosing, as compared with a 5% (w/v) topical Lidocaine (Xylocaine®) and a 1.16% (w/v) topical Diclofenac (Voltaren®). A rodent model of painful peripheral diabetic neuropathy (PDN) that mimics human condition was created by inducing a diabetic state in the rat through the ablation of the insulin producing pancreatic beta cells. A single streptozotocin (STZ) injection destroys beta cells in rats and produces a diabetic state that over time progresses to painful Peripheral Diabetic Neuropathy (PDN).
Streptozotocin (STZ) was dissolved in citrate buffer (20 mM, pH 4.5) and administered at a dose of 60 mg/Kg, intraperitoneal, to induce pancreatic beta-cell death. Blood glucose level was measured once a week following injection, using the AccuSoft Blood Glucose Monitoring System. […] Hyperalgesia and allodynia, which are signs of diabetic neuropathic pain, were monitored using the von Frey test as described below. Von Frey measurements were recorded from both left and right paws. Only those with significant hyperalgesia as determined by reduced threshold, measured in grams, of paw withdrawal to the von Frey filament were enrolled in the study. […] During this time their health status was closely monitored.
The animals were randomly divided into 4 test groups (n=7 animals/group) including a vehicle control, a 5% (w/v) Lidocaine (Xylocaine®), a 1.16% (w/v) Diclofenac (Voltaren®), and a pharmaceutical composition with 4% (w/w) COMPOUND A. After baseline measurement, 50 mg of the test composition was applied on the entire left foot. […] The paw withdrawal thresholds of animals from mechanical tactile stimuli were measured using the Electrovonfrey anesthesiometer (Model 2290, IITC Life Science, Woodland Hills, Calif.). […] The force (g) required to elicit a crisp withdrawal response was recorded before dosing as a baseline measurement, and at 30 minutes post-dosing. […]

Assay [2] deals with CCI-induced neuropathic pain model. Kind of assay: time course of efficacy in neuropathic pain model, Chronic Constriction Injury, von Frey. The format is in vivo, Sprague-Dawley rats. How it is done: Neuropathic pain is characterized by spontaneous pain and stimulus-evoked allodynia and hyperalgesia. Pharmaceutical compositions of the invention were evaluated in Chronic Constriction Injury model using Sprague-Dawley rats as described below.
An approximately 3 cm incision was made through the skin and the fascia at the mid thigh level of a rat's left hind leg using a no. 10 scalpel blade. The left sciatic nerve was exposed via blunt dissection through the biceps femoris with care to minimize haemorrhagia. Four loose ligatures were tied along the sciatic nerve using four chromic gut sutures at intervals of 1 mm to 2 mm apart. The tension of the loose ligatures was tight enough to induce slight constriction of the sciatic nerve when viewed under a dissection microscope at a magnification of 4 fold. As sham controls, the right sciatic nerve was exposed and manipulated in the same manner as described above, except sutures were not tied onto the nerve. Antibacterial ointment was applied directly into the wound, and the muscle was closed using sterilized sutures. Betadine® was applied onto the muscle and its surroundings, followed by skin closure with surgical clips.
A painful neuropathy was allowed to develop for at least 14 days in the ipsilateral leg as determined by lower paw withdrawal thresholds to a mechanical stimulus. Only those with significant hyperalgesia, as determined by reduced threshold of paw withdrawal to the von Frey filament, measured in grams, were enrolled in the study.
The response thresholds of animals to tactile stimuli were measured using the Model 2290 Electrovonfrey anesthesiometer (IITC Life Science, Woodland Hills, Calif.). Animals were placed in an elevated Plexiglass enclosure set on a mire mesh surface. After 15 minutes of accommodation, a von Frey hair was applied perpendicularly to the plantar surface of the ipsilateral hind paws of the animals with sufficient force, measured in grams, to elicit a crisp response of the paw. The response indicated a withdrawal from the painful stimulus and constituted the efficacy endpoint. The force (in grams) required to elicit a crisp withdrawal response was recorded before dosing as a baseline measurement, and at multiple time points post-dosing.
Three days prior to baseline measurement, animals were anaesthetized under isoflurane and the whole of the ipsilateral hind legs, including the upper sciatic notch thigh area, ankle and foot, was shaved. The animals were then randomly assigned to one of 4 different test groups including a vehicle control group, a 5% (w/v) Lidocaine (Xylocaine®), and 2 pharmaceutical compositions of the invention comprising COMPOUND A at 4% (w/w) containing either 5% or 10% Transcutol® P. After baseline measurement, 100 mg of the test composition was applied on the entire shaved area. The animals were then placed in plastic tubes for at least 15 minutes, to prevent early removal/ingestion of drug. Subsequently, animals were placed in the Plexiglas enclosure 15 minutes before von Frey measurement at the respective time points. Von Frey withdrawal thresholds were measured as the mean of several independent determinations made within 1-2 minutes of each other on the affected paw of each animal at 0.5, 1 and 2 hours post dosing.

As for `CCN(CC)CC(=O)Nc1c(C)cccc1C` [Lidocaine, reference compound], the “paw withdrawal threshold of treated paw, percent mean change from baseline (CFB)” value in assay [1] (5% (w/v) topical) is recorded as 25.9%. Besides, the “paw withdrawal threshold, percent mean change from baseline (CFB)” value in assay [2] (5% (w/v) topical, 100 mg applied, 0.5 hours post-dosing) is “+23.1%”. In addition, the “paw withdrawal threshold, CFB” value in assay [2] (5% (w/v) topical, time points later than 0.5 hours post-dosing, p>0.05) is given as “No significant changes”. In addition, in assay [2] (5% topical), the “duration of analgesic effects post-dosing” value is on record as “up to 0.5 hours”.

In the case of `O=C(O)Cc1ccccc1Nc1c(Cl)cccc1Cl` [Diclofenac], the “paw withdrawal threshold of treated paw, CFB” value in assay [1] (1.16% (w/v) topical) was “No significant CFB”.
